Entries after “also recorded” stand apart in the source; their conditions may differ.
Legend:
[1] = test system: human L363-BTZ (bortezomib-resistant) myeloma cells; experiment: Intrafemoral L363-BTZ luciferase xenograft in NSG mice; assay type: in vivo; conditions: 7 days treatment from day 10; crizotinib 50 mg/kg orally daily; bortezomib 1 mg/kg i.v. twice
Experimental: In this figure, immunocompromised NSG mice were intrafemorally injected with human L363-BTZ (bortezomib-resistant) myeloma cells. The cells were equipped with luciferase for in vivo monitoring of disease progression. After 10 days, mice were treated with bortezomib i.v. twice over a 7 day period and with crizotinib orally every day over the 7 day period. The images on the left show examples of tumour load in the different groups at days 4 and 7 of treatment (days 14 and 17 post tumour inoculation), and the graph on the right depicts the average luciferase signal for each mouse in each cohort (n=4) normalised to day 0 of the treatment (day 10 post tumour inoculation). Statistical significance between the groups was assessed with two-way ANOVA and between the time-points using one-way ANOVA with Tukey post-test.
NSG (NOD-scid IL2Rgamma^null) mice were obtained from The Jackson Laboratory (No. 005557, CA, USA) and kept in isolated ventilated cages with food ad libitum. Age matched (6-8 weeks old) mice were injected with 0.5×10^5 L363-BTZ_Luc+_TdTomato+ multiple myeloma cells (equipped with luciferase vector for monitoring, obtained from Addgene: #72486) into the right femur. Tumour growth was monitored twice over the week following luciferin injection (150 mg/kg, obtained from BioVision, CA, USA). […]

[2] = test system: Hepatocellular carcinoma cells (HepG2); experiment: Apoptosis (cleaved caspase 3 immunoblot) in HepG2 cells with doxorubicin; assay type: cell-based; conditions: 5 μM doxorubicin alone, 24 h
Experimental: In B, Hepatocellular carcinoma cells (HepG2) were treated with DMSO (untreated) or with increasing concentrations (1, 2 and 5 μM) of doxorubicin for 24 h and apoptosis was assessed by immunoblotting for cleaved caspase 3. […] Cells were also treated with the same concentrations of doxorubicin in the presence of 1 μM crizotinib for 24 h.
(§1) Cells were washed twice with PBS and collected in lysis buffer (50 mM Tris-HCl, pH7.4; 1 mM EDTA, 100 mM NaCl, 0.1% SDS and 1% NP-40) supplemented with proteinase and phosphatase inhibitor (Pierce Protease and Phosphatase Inhibitor Mini Tablets, EDTA-free). Lysates were incubated on ice for 10 minutes followed by clearing centrifugation at 20,000×g at 4° C. for 10 min. Supernatants were transferred into fresh tubes and reducing loading buffer was added. Lysates were subjected to SDS-PAGE and transferred onto a nitrocellulose membrane using semi-dry transfer. The membrane was blocked (in ROTI buffer (Roth) or 5% milk in PBS with 0.1% tween) and probed with the appropriate primary antibodies. Subsequently membranes were incubated with horseradish peroxidase-conjugated secondary antibody. Immunoblots were developed using a chemiluminescence reagent (ECL clarity, BioRad) and imaged using ChemiDoc (BioRad).

[3] = test system: multiple myeloma cells; experiment: Cytotoxic activity against multiple myeloma cells (FIG. 4, L363, AMO-1 and bortezomib-resistant clones); assay type: cell-based, human; conditions: FIG. 4, 24 hr treatment
Experimental: (§2) The Results are the means of 3 independent experiments. Note the concentration-dependent reduction of viability of myeloma cells.
(§3) The cell lines used were the human multiple myeloma cell lines L363 (DSMZ catalogue number ACC 49), AMO-1 (DSMZ catalogue number ACC 538) and ARH-77 (ATCC CRL-1621).
(§4) Multiple myeloma cell lines were maintained in RPMI-1640 culture medium (Sigma-Aldrich, Buchs, Switzerland) supplemented with 10% heat-inactivated fetal bovine serum (FBS), 100 μg/ml streptomycin and 100 U/ml penicillin/streptomycin (Sigma-Aldrich, Buchs, Switzerland). The bortezomib-resistant cell lines were established and maintained from their parental cell line by continuous drug exposure>12 months to their parental cell lines (Soriano et al, Leukemia 30: 2198-2207, 2016).
(§5) The viability of the cells was determined 24 hr post treatment using Cell Counting Kit-8 (CCK-8; MedChemExpress, NJ, USA) according to the manufacturer's instructions.

[4] = test system: CLL cells; experiment: Viability of activated CLL cells from patients, CellTiter-Glo 72 h (IC50, DSS); assay type: cell-based, human; conditions: CLL cells from 12 new patients
Experimental: CLL cells from patients were stimulated by adherent murine L cells expressing CD40L, BAFF and April for 24 h. The L cells were then removed by immuno-magnetic separation. Washed CLL cells were plated into 384-well plate format (10,000 cells/well) and tested against crizotinib at 5 concentrations in 10-fold dilutions (plates dispensed by an Echo acoustic dispenser, LabCyte Inc., San Jose, CA, USA). The plate was incubated in a humidified environment at 37° C. and 5% CO2. Cell viability was determined after 72 h using the CellTiter-Glo (Promega, Madison, WI, USA) ATP assay according to the manufacturer's instructions and using an Envision 2102 Multilabel reader (PerkinElmer, Shelton, CT, USA). Relative percentage cell viability was calculated by normalising luminescence units for each well to negative (DMSO 0.1%) and positive (100 μM BzCl) control wells. Curve fitting was conducted to obtain IC50 values.
Quantitative scoring of differential drug sensitivity for individual drugs was calculated as drug sensitivity scores (DSS values, Yadav et al., Scientific Reports 4: 5193, 2014). DSS values were calculated for integrated multiple dose-response relationships in high-throughput compound testing as shown.

[5] = target: T1, LTK (Homo sapiens, UniProt P29376); experiment: LTK inhibition: immunoblot of phosphorylated LTK in cells expressing LTK; assay type: cell-based; conditions: FIG. 5A: HeLa cells expressing flag-tagged LTK, 1 μM, 30 minutes
T1 construct: expressed in transfected cells; host or cells: HeLa cells
T1 sequence (P29376 17-864): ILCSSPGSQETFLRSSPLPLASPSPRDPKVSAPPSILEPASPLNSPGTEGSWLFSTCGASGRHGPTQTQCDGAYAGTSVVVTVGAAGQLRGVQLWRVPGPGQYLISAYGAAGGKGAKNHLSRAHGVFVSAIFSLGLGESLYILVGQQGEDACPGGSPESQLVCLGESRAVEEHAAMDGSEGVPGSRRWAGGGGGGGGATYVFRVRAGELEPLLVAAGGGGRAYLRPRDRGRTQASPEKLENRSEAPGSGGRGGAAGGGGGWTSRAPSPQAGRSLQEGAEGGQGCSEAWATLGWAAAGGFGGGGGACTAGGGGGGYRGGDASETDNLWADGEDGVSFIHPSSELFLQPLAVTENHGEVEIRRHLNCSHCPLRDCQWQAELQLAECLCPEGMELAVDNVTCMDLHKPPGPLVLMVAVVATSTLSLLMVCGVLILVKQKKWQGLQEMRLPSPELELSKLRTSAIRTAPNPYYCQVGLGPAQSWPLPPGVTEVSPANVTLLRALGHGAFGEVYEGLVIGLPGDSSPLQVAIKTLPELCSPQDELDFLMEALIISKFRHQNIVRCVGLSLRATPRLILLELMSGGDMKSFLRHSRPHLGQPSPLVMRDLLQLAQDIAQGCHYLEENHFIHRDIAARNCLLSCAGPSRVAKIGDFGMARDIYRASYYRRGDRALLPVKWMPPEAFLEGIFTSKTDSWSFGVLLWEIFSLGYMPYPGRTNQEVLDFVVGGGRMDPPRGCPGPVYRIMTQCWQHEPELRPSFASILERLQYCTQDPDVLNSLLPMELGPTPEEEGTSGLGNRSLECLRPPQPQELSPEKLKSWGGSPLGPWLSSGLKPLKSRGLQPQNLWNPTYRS
Experimental: as §1

[6] = test system: L363-BTZ; experiment: Myeloma cell line viability, CCK-8, 24 hr; assay type: cell-based, human; conditions: Homo sapiens; L363-BTZ, 24 hr treatment
Experimental: as §2, §3, §4, §5

[7] = test system: L363; experiment: Myeloma cell line viability, CCK-8, 24 hr; assay type: cell-based, human; conditions: Homo sapiens, L-363; L363, 24 hr treatment
Experimental: as §2, §3, §4, §5

[8] = test system: AMO-1-BTZ; experiment: Myeloma cell line viability, CCK-8, 24 hr; assay type: cell-based; conditions: Homo sapiens, 24 hr treatment
Experimental: as §2, §3, §4, §5

[9] = test system: AMO-1; experiment: Myeloma cell line viability, CCK-8, 24 hr; assay type: cell-based; conditions: Homo sapiens, AMO1; AMO-1, 24 hr treatment
Experimental: as §2, §3, §4, §5

[10] = test system: HeLa cells; experiment: ER-to-Golgi trafficking in HeLa cells (ERES staining, mannosidase-II RUSH reporter); assay type: cell-based; conditions: RUSH reporter 20 min after biotin
Experimental: (§6) In A, HeLa cells expressing flag-tagged LTK were treated with 1 μM of crizotinib or ceritinib for 30 minutes. Afterwards, cells were lysed and immunoblotted against phosphorylated LTK, which is used as a surrogate for the active form of LTK. […] B, HeLa cells were treated with 1 μM ceritinib for 30 minutes followed by fixation and staining for Sec31A to label ERES. Cells were imaged by confocal microscopy and ERES were counted using ImageJ. C, HeLa cells stably expressing mCherry-tagged mannosidase-II RUSH reporter. Cells were treated with biotin to release the reporter from the ER. After 20 min, a time point where most of the reporter has reached the Golgi, cells were fixed and immunostained for GM130 to label the Golgi apparatus. […] D, IgA secreting AMO-1 cells were treated for 3 h with the indicated doses of crizotinib and the amount of IgA in cell supernatant was determined by ELISA.

[11] = test system: AMO-1 cells; experiment: IgA secretion by AMO-1 cells, ELISA of supernatant; assay type: cell-based, human; conditions: 3 h
Experimental: as §6
Right: Secretion of Ig is reduced by ceritinib. The plasma cell line AMO-1 was washed and added to wells (10^6 cells/well) in the presence of titred ceritinib for 3 h. Supernatants were assayed for IgA secreted by the AMO-1 cells by use of the Human IgA ELISA Kit (Abcam, Cambridge, UK).
1×10^6/ml IgA-secreting AMO-1 cells were seeded in fresh medium with increasing doses of compounds of interest for 3 hr. […]

[12] = test system: plasma cells; experiment: Viability of in vitro-generated IRF4/BLIMP1 double positive end stage plasma cells; assay type: cell-based; conditions: Homo sapiens, B-cell, 120 h; B-cells stimulated 5 days, inhibitor day 5-7
Excerpt: Negatively selected normal B-cells from blood bank donors were stimulated with sCD40L, IL-21, IL-4 for 5 days. This protocol allows generation of 10-20% end differentiated plasma cells that express IRF4 and BLIMP1. From day 5-7, cells were exposed to titred crizotinib in A, or ceritinib in B.
In A and B, IRF4 vs BLIMP1 in gated CD19^+ B cells is shown. IRF4 and BLIMP1 double positive cells represent end stage plasma cells. Such plasma cells are gated (blue elliptic region) and percent plasma cells are shown. The conditions without inhibitor (0) and with linear Alk-inhibitor (crizotinib, A; ceritinib, B) are shown for concentrations 0.01 μM, 0.1 μM, 1 μM, 10 μM and 100 μM.

SMILES: CC(C)C[C@H](NC(=O)[C@H](Cc1ccccc1)NC(=O)c1cnccn1)B(O)O [bortezomib]
- tumour burden (luciferase signal) [1]: confirmed proteasome inhibitor resistance

SMILES: COc1cccc2c1C(=O)c1c(O)c3c(c(O)c1C2=O)C[C@@](O)(C(=O)CO)C[C@@H]3O[C@H]1C[C@H](N)[C@H](O)[C@H](C)O1 [doxorubicin]
- cell death (cleaved caspase 3) [2]: only weakly induces cell death

SMILES: C[C@H]1Oc2cc(cnc2N)-c2c(nn(C)c2C#N)CN(C)C(=O)c2ccc(F)cc21 [lorlatinib]
- cytotoxic activity against multiple myeloma cells [3]: did not efficiently kill myeloma cells
- patients with susceptible CLL cells, cut-off DSS=10 [4]: 0/12

SMILES: Cc1cc(Nc2ncc(Cl)c(Nc3ccccc3S(=O)(=O)C(C)C)n2)c(OC(C)C)cc1C1CCNCC1 [ceritinib, 5-chloro-2-N-(5-methyl-4-piperidin-4-yl-2-propan-2-yloxyphenyl)-4-N-(2-propan-2-ylsulfonylphenyl)pyrimidine-2,4-diamine]
- inhibition of LTK [5]: inhibit LTK
- IC50 [6]: 0.79 µM
- IC50 [7]: 1.03 µM
- IC50 [8]: 2.77 µM
- IC50 [9]: 2.09 µM
- cytotoxic activity against multiple myeloma cells [3]: cytotoxic activity
- ER-to-Golgi trafficking [10]: inhibits ER-to-Golgi trafficking
- immunoglobulin (IgA) secretion [11]: reduced; also recorded: inhibits immunoglobulin secretion
- patients with susceptible CLL cells, cut-off DSS=10 [4]: 11/12
- IC50 [12]: < 1 nM

SMILES: CCc1cc2c(cc1N1CCC(N3CCOCC3)CC1)C(C)(C)c1[nH]c3cc(C#N)ccc3c1C2=O [alectinib, 9-ethyl-6,6-dimethyl-8-(4-morpholin-4-ylpiperidin-1-yl)-11-oxo-5H-benzo[b]carbazole-3-carbonitrile]
- IC50 [6]: 6.22 µM
- IC50 [7]: 6.12 µM
- IC50 [8]: 17.6 µM
- IC50 [9]: 13.3 µM
- cytotoxic activity against multiple myeloma cells [3]: cytotoxic activity

SMILES: COc1cc(N2CCC(N3CCN(C)CC3)CC2)ccc1Nc1ncc(Cl)c(Nc2ccccc2P(C)(C)=O)n1 [brigatinib, 5-chloro-4-N-(2-dimethylphosphorylphenyl)-2-N-[2-methoxy-4-[4-(4-methylpiperazin-1-yl)piperidin-1-yl]phenyl]pyrimidine-2,4-diamine]
- patients with susceptible CLL cells, cut-off DSS=10 [4]: 4/12

SMILES: CN1CCN(c2ccc(C(=O)Nc3n[nH]c4ccc(Cc5cc(F)cc(F)c5)cc34)c(NC3CCOCC3)c2)CC1 [entrectinib, N-[5-[(3,5-difluorophenyl)methyl]-1H-indazol-3-yl]-4-(4-methylpiperazin-1-yl)-2-(oxan-4-ylamino)benzamide]
- cytotoxic activity against multiple myeloma cells [3]: cytotoxic activity
- patients with susceptible CLL cells, cut-off DSS=10 [4]: 12/12

SMILES: C[C@@H]1CN(C(=O)c2ccc(NC(=O)c3cc(O[C@H](C)c4c(Cl)ccc(F)c4Cl)c(N)nn3)cc2)C[C@H](C)N1 [ensartinib, 6-amino-5-[(1R)-1-(2,6-dichloro-3-fluorophenyl)ethoxy]-N-[4-[(3R,5S)-3,5-dimethylpiperazine-1-carbonyl]phenyl]pyridazine-3-carboxamide]
- cytotoxic activity against multiple myeloma cells [3]: cytotoxic activity
- patients with susceptible CLL cells, cut-off DSS=10 [4]: 11/12

Reference: patent US12465607B2, “ALK inhibitors for treatment of ALK-negative cancer and plasma cell-mediated diseases” (UNIVERSITETET I OSLO, priority 2019, dated 2025)
